Literature values in patent US8980299B2, “Method of making a vascular closure device” (Cordis Corporation, priority 2007, dated 2015).

Test system: S. aureus
Settings: suitable growth medium; Bhargava et al., Am J Infect Control, June 1996

Oc1cc(Cl)ccc1Oc1ccc(Cl)cc1Cl [2,4,4′-trichloro-2′hydroxydiphenyl ether, 2,4,4′-trichloro-2′-hydroxydiphenyl ether]
minimum inhibitory concentration (MIC) against S. aureus: 0.01 ppm
